These results are taken from ChEMBL document CHEMBL3112462, “2-acylamino-5-nitro-1,3-thiazoles: preparation and in vitro bioevaluation against four neglected protozoan parasites” (Bioorg Med Chem, 2014).

The subject of data set [1] is Trypanosoma cruzi. The data set is described as follows: Antimicrobial activity against epimastigote stage of Trypanosoma cruzi MHOM/MX/1994/Ninoa clinical isolate after 72 hrs by Neubauer chamber analysis. The data set is classed as functional, organism-based.
Data set [2] has as its system Trichomonas vaginalis. The data set is described as follows: Antimicrobial activity against Trichomonas vaginalis GT3 incubated for 48 hrs followed by compound washout measured after 48 hrs. The format is functional, organism-based. The note with it: GT3, 48 h.
Data set [3] can be described thus: Cytotoxicity against African green monkey Vero cells assessed as cell viability after 48 hrs by SRB assay. The format is cell-based. The note with it: chlorocebus sabaeus. (In general: In SRB staining, fixed cells bind dye roughly in proportion to their protein.)
Data set [4] deals with Giardia intestinalis. The data set is described as follows: Ratio of metronidazole IC50 to compound IC50 for Giardia intestinalis IMSS:0696:1. The data set is classed as functional, Giardia duodenalis.
The subject of data set [5] is Leishmania amazonensis. The experiment in a line: Antimicrobial activity against promastigote stage of Leishmania amazonensis IFLA/BR/67/PH-8 clinical isolate after 72 hrs by Neubauer chamber analysis. The data set is classed as functional, organism-based. The note with it: IFLA/BR/67/PH-8, 72 h.
The test system of data set [6] is Giardia intestinalis. The data set is described as follows: Antimicrobial activity against Giardia intestinalis IMSS:0696:1 incubated for 48 hrs followed by compound washout measured after 48 hrs. The data set is classed as functional, organism-based. Conditions: Giardia duodenalis, IMSS:0696:1, 48 h.
The nature of data set [7]: Selectivity index, ratio of CC50 for African green monkey Vero cells to IC50 for Trichomonas vaginalis GT3. The format is functional.
For data set [8], the system named is Trichomonas vaginalis. The data set is described as follows: Ratio of metronidazole IC50 to compound IC50 for Trichomonas vaginalis GT3. The format is functional.
The nature of data set [9]: Selectivity index, ratio of CC50 for African green monkey Vero cells to IC50 for Giardia intestinalis IMSS:0696:1. The format is functional.
Data set [10] has as its system Leishmania amazonensis. The data set is described as follows: Ratio of pentamidine IC50 to compound IC50 for promastigote stage of Leishmania amazonensis IFLA/BR/67/PH-8 clinical isolate. The data set is classed as functional.
Data set [11] relates to Trypanosoma cruzi. The experiment in a line: Ratio of benznidazole IC50 to compound IC50 for epimastigote stage of Trypanosoma cruzi MHOM/MX/1994/Ninoa clinical isolate. The format is functional.

Some results are limits rather than exact numbers.

With `CCCCC(=O)Nc1ncc([N+](=O)[O-])s1`, the IC50 in data set [1] is above 50 µM; in data set [2] (read-out: IC50) it was 0.305 µM; in data set [2] (read-out: pIC50 (converted)) it was 0.316 µM; in data set [5], above 50 µM; in [6] (read-out: IC50), 0.398 µM; in data set [6] (read-out: pIC50 (converted)), 0.398 µM. Moreover, the CC50 (as a rule, the concentration that lowers cell viability or growth by half) at 48 h in data set [3] is above 1000 µM. Further, in data set [4], the “Ratio IC50” value came out at 11.
In the case of `O=C(Nc1ccccc1)Nc1ncc([N+](=O)[O-])s1`, the IC50 was above 50 µM in [1], 38.5 µM in [5], 2.57 µM in data set [6] (read-out: IC50) and 2.57 µM in data set [6] (read-out: pIC50 (converted)). For the same molecule, the CC50 at 48 h in [3] was above 1000 µM.
`O=C(Nc1ncc([N+](=O)[O-])s1)NC1CCCCC1`: the IC50 in data set [1] was above 50 µM; in data set [2] (read-out: IC50) it was 1.65 µM; in data set [2] (read-out: pIC50 (converted)) it was 2 µM; in [5], above 50 µM; in [6] (read-out: IC50), 0.359 µM; in data set [6] (read-out: pIC50 (converted)) it was 0.363 µM. Further, in data set [3], the CC50 at 48 h was above 1000 µM. Further, the “Ratio IC50” value in [4] is 11.
Turning to `O=C(Nc1ccc(Cl)cc1)Nc1ncc([N+](=O)[O-])s1`, the IC50 is above 50 µM in data set [1]; 1.03 µM in data set [2] (read-out: IC50); 1.26 µM in data set [2] (read-out: pIC50 (converted)); 37.2 µM in data set [5]; 0.577 µM in data set [6] (read-out: IC50); 0.589 µM in data set [6] (read-out: pIC50 (converted)). For the same molecule, the CC50 at 48 h in data set [3] is above 1000 µM. Further, the “Ratio IC50” value in data set [4] turned out to be 11.
Turning to `O=C(Nc1ccc(F)cc1)Nc1ncc([N+](=O)[O-])s1`, the IC50 in [1] was above 50 µM; in data set [2] (read-out: IC50), 1.23 µM; in data set [2] (read-out: pIC50 (converted)), 1.26 µM; in data set [5] it was above 50 µM; in data set [6] (read-out: IC50), 7.83 µM; in data set [6] (read-out: pIC50 (converted)) it was 7.94 µM. The CC50 at 48 h in data set [3] was above 1000 µM.
Regarding `COc1ccc(NC(=O)Nc2ncc([N+](=O)[O-])s2)cc1`, the IC50 in data set [1] is above 50 µM; in [2] (read-out: IC50) it was 1.3 µM; in [2] (read-out: pIC50 (converted)), 1.58 µM; in data set [5], 32.2 µM; in data set [6] (read-out: IC50) it was 29.1 µM; in [6] (read-out: pIC50 (converted)), 29.5 µM.
In the case of `CCOc1ccc(NC(=O)Nc2ncc([N+](=O)[O-])s2)cc1`, the IC50 in [1] is above 50 µM; in [2] (read-out: IC50) it was 0.282 µM; in data set [2] (read-out: pIC50 (converted)), 0.316 µM; in data set [5] it was above 50 µM; in [6] (read-out: IC50), 3.75 µM; in data set [6] (read-out: pIC50 (converted)), 3.8 µM. The CC50 at 48 h in [3] was above 1000 µM.
For the molecule `CCCCOc1ccc(NC(=O)Nc2ncc([N+](=O)[O-])s2)cc1`, the IC50 in data set [1] is above 50 µM; in data set [2] (read-out: IC50), 0.387 µM; in data set [2] (read-out: pIC50 (converted)), 0.398 µM; in [5], above 50 µM; in data set [6] (read-out: IC50) it was 1.8 µM; in data set [6] (read-out: pIC50 (converted)) it was 1.82 µM. Besides, the CC50 at 48 h in [3] came out at 58 µM.
`O=C(Nc1ccc([N+](=O)[O-])cc1)Nc1ncc([N+](=O)[O-])s1`: the IC50 was above 50 µM in [1]; 0.958 µM in [2] (read-out: IC50); 1 µM in data set [2] (read-out: pIC50 (converted)); above 50 µM in data set [5]; 15.3 µM in data set [6] (read-out: IC50); 15.5 µM in data set [6] (read-out: pIC50 (converted)).
Take `CCCCCCCCCCCCCCCC(=O)Nc1ncc([N+](=O)[O-])s1`: the IC50 in [1] is above 50 µM; in data set [2] (read-out: IC50) it was 2.58 µM; in [2] (read-out: pIC50 (converted)) it was 3.16 µM; in [5], above 50 µM; in data set [6] (read-out: IC50) it was 1.63 µM; in [6] (read-out: pIC50 (converted)), 1.66 µM. Moreover, in [3], the CC50 at 48 h is above 1000 µM.
For the molecule `COC(=O)Nc1ncc([N+](=O)[O-])s1`, the “Ratio CC50/IC50” value is given as 30407 in [7] and 246300 in data set [9]. For the same molecule, the “Ratio IC50” value in data set [8] came to 4; in [4] it was 536. Besides, the IC50 is above 50 µM in [1]; 0.081 µM in data set [2] (read-out: IC50); 0.1 µM in data set [2] (read-out: pIC50 (converted)); above 50 µM in [5]; 0.01 µM in data set [6] (read-out: IC50); 0.01 µM in [6] (read-out: pIC50 (converted)). For the same molecule, in data set [3], the CC50 at 48 h is 2460 µM.
As for `CCOC(=O)C(=O)Nc1ncc([N+](=O)[O-])s1`, the “Ratio CC50/IC50” value in [7] was 141500; in data set [9] it was 220. In [8], the “Ratio IC50” value is given as 29. Further, the IC50 in data set [1] was above 50 µM; in [2] (read-out: IC50), 0.01 µM; in [2] (read-out: pIC50 (converted)) it was 0.01 µM; in data set [5], above 50 µM; in data set [6] (read-out: IC50), 6.41 µM; in data set [6] (read-out: pIC50 (converted)), 6.46 µM. Further, the CC50 at 48 h in data set [3] was 1420 µM.
As for `Nc1ncc([N+](=O)[O-])s1`, the IC50 is above 50 µM in [1]; 52.9 µM in data set [2] (read-out: IC50); 63.1 µM in [2] (read-out: pIC50 (converted)); above 50 µM in data set [5]; 29.6 µM in [6] (read-out: IC50); 27.5 µM in data set [6] (read-out: pIC50 (converted)). In addition, the half-maximal cytotoxic concentration (CC50) at 48 h in data set [3] worked out at 441 µM.
With `O=C(Cn1ccnc1[N+](=O)[O-])NCc1ccccc1` [BENZNIDAZOLE], the CC50 at 48 h in data set [3] amounted to 14 µM. Also, in data set [5], the IC50 is above 50 µM.
As to `Cc1ncc([N+](=O)[O-])n1CCO` [METRONIDAZOLE], the IC50 in data set [1] was above 50 µM; in [2] (read-out: pIC50 (converted)), 0.316 µM; in data set [5], above 50 µM. In data set [3], the CC50 at 48 h worked out at 387 µM.
On to `CC(=O)Oc1ccccc1C(=O)Nc1ncc([N+](=O)[O-])s1` [NITAZOXANIDE], for which the “Ratio IC50” value in data set [10] and in data set [11] was 2 in each case. In addition, the IC50 was 0.0794 µM in data set [2] (read-out: pIC50 (converted)), 7.23 µM in data set [5] and 1.23 µM in data set [6] (read-out: pIC50 (converted)). The CC50 at 48 h in [3] worked out at 833 µM.
Turning to `CC(=O)Nc1ncc([N+](=O)[O-])s1` [NITHIAMIDE], the “Ratio IC50” value in data set [8] is listed as 13; in [4], 11. Also, the IC50 in [1] was above 50 µM; in data set [2] (read-out: IC50), 0.022 µM; in data set [2] (read-out: pIC50 (converted)) it was 0.0251 µM; in data set [5], above 50 µM; in data set [6] (read-out: IC50), 0.49 µM; in data set [6] (read-out: pIC50 (converted)), 0.501 µM. The CC50 at 48 h in data set [3] is above 1000 µM.
With `N=C(N)c1ccc(OCCCCCOc2ccc(C(=N)N)cc2)cc1` [PENTAMIDINE], the IC50 in [1] was above 50 µM; in [5], 14.3 µM. Besides, the half-maximal cytotoxic concentration (CC50) at 48 h in [3] came out at 47 µM.
